In PubChem BioAssay AID1963853 (Molecular Pharmacology Branch, DTP, NCI, 2024):
Several values for one entry are separate records, joined by “and”; a condition that tells them apart may be missing. Identical values can stand only once.

System: 266295-075-R-J1-PDC spheroid viability
Experiment: Anticancer human tumor 266295-075-R-J1-PDC patient-derived head and neck squamous carcinoma cell line growth inhibition [POLQ]
Settings: spheroids with HUVEC and MSC; for viability, T/C: stronger effect = lower value; active = viability on the fitted dose curve at most 10% of control; inactive = the rest
Protocol: Multicellular complex tumor spheroid response to Polymerase (POL) inhibitors (novobiocin, ART-558, RP6685) in combination with a variety of drugs and investigational agents in selected tumor cell lines
The POL inhibitors (novobiocin, ART-558, and RP6685) were evaluated both individually and in combination with standard of care and investigational anticancer small molecules within a complex spheroid model of solid tumors. . Complex spheroids include a stromal component modeled by human endothelial cells (HUVEC) and fibroblasts modeled by human mesenchymal stem cells (MSCs). The concentration ranges selected for each drug and investigational agent were based upon clinically achievable concentrations if the clinical Cmax of the agent was known.
Compounds. The drugs and investigational agents: novobiocin (NSC847541), ART-558 (NSC835418), RP-6685 (NSC848927), peposertib (NSC802822), ceralasertib (NSC780249), elimusertib (NSC800525), camonsertib (NSC841442), AZD-1390 (NSC803789), olaparib (NSC753686), talazoparib (NSC767125), rucaparib (NSC756644), sotorasib (NSC818433), MRTX-1133 (NSC836407), SN-38 (NSC673596), topotecan (NSC609699), epotoside (NSC141540), doxorubicin (NSC123127), gemcitabine (NSC613327), 5-fluorouracil (NSC19893), paclitaxel (NSC125973), vemurafenib (NSC761431), MSA-2 (NSC828583), SN-011 (NSC837082), adavosertib (NSC754352), prexasertib (NSC758257), carboplatin (NSC241240) and oxaliplatin (NSC266046), were obtained from the National Cancer Institute (NCI) Developmental Therapeutics Program Chemical Repository (21). The FDA-approved anticancer drug set is available from the Developmental Therapeutics Program at https://dtp.cancer.gov/organization/dscb/obtaining/. […] The stock solutions were prepared in dimethyl sulfoxide (DMSO, Sigma-Aldrich, St. Louis, MO, cat. D2650), except for the platinum compounds which were prepared in saline (Quality Biological, Gaithersburg, MD, cat. 114-055-101), at 800-fold the tested concentration and stored at -70 degrees C prior to their use. All drugs and investigational agents were tested over a range starting from a high concentration at or near the clinical Cmax and decreasing in half-log increments. If the clinical Cmax for an agent had not been determined, the highest concentration tested was 10 microM, except for SN-38, which was tested at a high concentration of 1 microM.
Cell Culture. All cells were maintained in an incubator at 37 degrees C and 5% CO2 with 95% humidity. The PDC lines were cultured according to standard operating procedures established by the NCI PDMR (https://pdmr.cancer.gov). Table 3 of the manuscript, lists the cell lines along with the number of the three cell types plated to form the mct-spheroids and media for tumor cell growth. After thawing, all PDC lines, except 997537-175-T-J1-PDC and 415267-285-R-J2-PDC, were cultured in Matrigel-coated flasks prepared with a working solution of 1X Ham's F-12 nutrient mix, without supplementation (Thermo Fisher Scientific, cat. 11765054), 100 U/mL penicillin-streptomycin (Thermo Fisher Scientific, cat. 15140122), and 2.5% Matrigel (Corning Inc., Corning, NY, cat. 354248) for the first three passages. The two PDC lines 997537-175-T-J1-PDC and 415267-285-R-J2-PDC were cultured on uncoated flasks. The 857933-349-R-J2-PDC line was cultured in 6C/Colon 1B media containing advanced DMEM/F-12 (Thermo Fisher Scientific, cat. 12634028), 10 mM HEPES (Thermo Fisher Scientific, cat. 15630080), 1X GlutaMAX supplement (Thermo Fisher Scientific, cat. 35050061), 0.1 mg/mL primocin (InvivoGen, San Diego, CA, cat. ant-pm-2), 10% defined fetal bovine serum, heat inactivated (HyClone Laboratories Inc., Logan, UT, cat. SH30070.03HI), 50% L-WRN conditioned media (ATCC, cat. CRL-3276), 1.25 mM N-Acetyl-L-cysteine (Sigma-Aldrich, cat. A9165), 10 mM nicotinamide (Sigma-Aldrich, cat. N0636), 1X B-27 supplement (Thermo Fisher Scientific, cat. 17504044), 1X N-2 supplement (Thermo Fisher Scientific, cat. […]
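Also: spheroids exposed to compounds for seven days before readout.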

O=C(Nc1ccc(O)c(NS(=O)(=O)c2ccc(F)cc2)c1)c1ccc(-c2ccccc2)cc1 + Nc1ccc(C#CCN(C(=O)Cc2ncc(C(F)(F)F)cc2C(F)(F)F)c2ccc(F)cc2)nn1
> 10 µM: IC50 (curve of first compound, second compound 0.0316 µM) | IC50 (curve of first compound, second compound 0.1 µM) | IC50 (curve of first compound, second compound 0.316 µM) | IC50 (curve of first compound, second compound 1 µM) | IC50 (curve of first compound, second compound 3.16 µM) | IC50 (curve of first compound, second compound 10 µM)
inactive: viability, T/C (second compound 0.0316 µM, first compound 0.0316 µM) 118% | viability, T/C (second compound 0.0316 µM, first compound 0.1 µM) 105% | viability, T/C (second compound 0.0316 µM, first compound 0.316 µM) 96.8% | viability, T/C (second compound 0.0316 µM, first compound 1 µM) 114% | viability, T/C (second compound 0.0316 µM, first compound 3.16 µM) 135% | viability, T/C (second compound 0.0316 µM, first compound 10 µM) 87.8% | viability, T/C (second compound 0.1 µM, first compound 0.0316 µM) 98.3% | viability, T/C (second compound 0.1 µM, first compound 0.1 µM) 123% | viability, T/C (second compound 0.1 µM, first compound 0.316 µM) 86.3% | viability, T/C (second compound 0.1 µM, first compound 1 µM) 118% | viability, T/C (second compound 0.1 µM, first compound 3.16 µM) 131% | viability, T/C (second compound 0.1 µM, first compound 10 µM) 94.7% | viability, T/C (second compound 0.316 µM, first compound 0.0316 µM) 103% | viability, T/C (second compound 0.316 µM, first compound 0.1 µM) 113% | viability, T/C (second compound 0.316 µM, first compound 0.316 µM) 123% | viability, T/C (second compound 0.316 µM, first compound 1 µM) 114% | viability, T/C (second compound 0.316 µM, first compound 3.16 µM) 130% | viability, T/C (second compound 0.316 µM, first compound 10 µM) 106% | viability, T/C (second compound 1 µM, first compound 0.0316 µM) 101% | viability, T/C (second compound 1 µM, first compound 0.1 µM) 109% | viability, T/C (second compound 1 µM, first compound 0.316 µM) 83.5% | viability, T/C (second compound 1 µM, first compound 1 µM) 109% | viability, T/C (second compound 1 µM, first compound 3.16 µM) 131% | viability, T/C (second compound 1 µM, first compound 10 µM) 91.9% | viability, T/C (second compound 3.16 µM, first compound 0.0316 µM) 94.4% | viability, T/C (second compound 3.16 µM, first compound 0.1 µM) 98% | viability, T/C (second compound 3.16 µM, first compound 0.316 µM) 91% | viability, T/C (second compound 3.16 µM, first compound 1 µM) 99.7% | viability, T/C (second compound 3.16 µM, first compound 3.16 µM) 111% | viability, T/C (second compound 3.16 µM, first compound 10 µM) 106% | viability, T/C (second compound 10 µM, first compound 0.0316 µM) 87.9% | viability, T/C (second compound 10 µM, first compound 0.1 µM) 82.4% | viability, T/C (second compound 10 µM, first compound 0.316 µM) 102% | viability, T/C (second compound 10 µM, first compound 1 µM) 105% | viability, T/C (second compound 10 µM, first compound 3.16 µM) 94.3% | viability, T/C (second compound 10 µM, first compound 10 µM) 87.9%

C=CC(=O)N1CCN(c2nc(=O)n(-c3c(C)ccnc3C(C)C)c3nc(-c4c(O)cccc4F)c(F)cc23)C(C)C1 (stereo not given)
inactive: viability, T/C (compound 0.0316 µM) 85.8% and 77.5% and 104% | viability, T/C (compound 0.1 µM) 98.6% and 98% and 100% | viability, T/C (compound 0.316 µM) 100% and 98.1% and 101% | viability, T/C (compound 1 µM) 104% and 95.8% and 112% | viability, T/C (compound 3.16 µM) 120% and 102% and 128% | viability, T/C (compound 10 µM) 110% and 129% and 93.2%
> 10 µM: IC50 (curve of compound)

O=C(c1cc(Cc2n[nH]c(=O)c3ccccc23)ccc1F)N1CCN(C(=O)C2CC2)CC1
inactive: viability, T/C (compound 0.0316 µM) 114% and 79.6% and 101% | viability, T/C (compound 0.1 µM) 84% and 87.8% and 94.3% | viability, T/C (compound 0.316 µM) 94.3% and 90.3% and 90.9% | viability, T/C (compound 1 µM) 91.9% and 99.1% and 99.3% | viability, T/C (compound 3.16 µM) 112% and 105% and 107% | viability, T/C (compound 10 µM) 85.3% and 86.9% and 82.6%
> 10 µM: IC50 (curve of compound)

Nc1ccc(C#CCN(C(=O)Cc2ncc(C(F)(F)F)cc2C(F)(F)F)c2ccc(F)cc2)nn1
> 10 µM: IC50 (compound alone, run of 11/06/2023)
inactive: viability, T/C (compound 0.316 µM) 102% [middle of 13 runs] | viability, T/C (compound 3.16 µM) 95.5% [middle of 13 runs] | viability, T/C (compound 10 µM) 96.3% [middle of 13 runs]
